Experimental data from patent US6537527B1, “Skin lightening compositions” (Children's Hospital Medical Center, priority 1994, dated 2003).

Experiment: Stability under selective acid hydrolysis in pH 5 buffer
Format: physicochemical
Details: pH 5 buffer solution
Protocol: To a stirred suspension comprising the benzyl protected intermediate (1.0 equiv.), 5% Pd/C (0.07 equiv.) and methanol is added 55% hydrazine hydrate (˜20 equiv.). The reaction mixture is slowly heated and maintained at reflux under an inert atmosphere until TLC analysis indicates complete consumption of starting material. Reaction mixture is cooled to room temperature, filtered through celite to remove catalyst and volatiles removed in-vacuo. Residue is then subjected to low pressure column chromatography with 7:3 hexane:ethyl acetate as eluent. Composition and purity of isolated white solid as determined by ^1H and ^13C NMR is consistent with the brominated compound shown.

stability to acid hydrolysis: stable under these conditions
SMILES: Oc1ccc(O[C@H]2OCCC[C@@H]2Br)cc1 [Iii]
